How the values were obtained:
[1] = test system: rifampin-resistant Staphylococcus aureus (RRSA) strain ATCC 12600-Rif (H526N); assay: MIC, spiral gradient endpoint assay, RRSA 12600-Rif; format: cell-based; details: Staphylococcus aureus, ATCC12600; read-out: MIC S. aureus RRSA 12600-Rif
[2] = test system: Staphylococcus aureus ATCC 12600; assay: MIC, spiral gradient endpoint assay, S. aureus ATCC 12600; format: cell-based; details: ATCC12600; Staphylococcus aureus ATCC 12600
[3] = test system: Mycobacterium tuberculosis H37Rv; assay: MIC, microplate Alamar Blue assay, M. tuberculosis; format: cell-based
[4] = test system: Acinetobacter baumannii ATCC 19606; assay: MIC, spiral gradient endpoint assay, A. baumannii; format: cell-based; details: ATCC19606; Acinetobacter baumannii ATCC 19606
[5] = target: M. tuberculosis RNA polymerase core enzyme, M. tuberculosis σ^A (Mycobacterium tuberculosis, UniProt P9WGY7+P9WGY9); assay: Fluorescence-detected RNA polymerase assay, M. tuberculosis RNA polymerase; format: biochemical; details: read-out: IC50 M. tuberculosis RNAP
[6] = target: E. coli RNA polymerase σ^70 holoenzyme (Escherichia coli, UniProt P0A8T7+P0A8V2); assay: Fluorescence-detected RNA polymerase assay, E. coli RNA polymerase; format: biochemical; details: read-out: IC50 E. coli RNAP
[7] = test system: methicillin-resistant Staphylococcus aureus (MRSA) strain BAA-1707 (USA-400; MW2); assay: MIC, spiral gradient endpoint assay, MRSA BAA-1707; format: cell-based; details: Staphylococcus aureus; read-out: MIC S. aureus MRSA BAA-1707
[8] = test system: Escherichia coli D21f2tolC; assay: MIC, spiral gradient endpoint assay, E. coli D21f2tolC; format: cell-based; details: Escherichia coli, D21F2TOLC, read-out: MIC E. coli D21f2toIC
[9] = test system: methicillin-resistant Staphylococcus aureus (MRSA) strain BAA-1717 (USA-300); assay: MIC, spiral gradient endpoint assay, MRSA BAA-1717; format: cell-based; details: Staphylococcus aureus; read-out: MIC S. aureus MRSA BAA-1717
Yersinia pestis C092 = assay: microbe, parasite or virus in culture; format: cell-based; details: Yersinia pestis, C092, read-out: MIC Y. pestis C092
[10] = test system: Bacillus anthracis Vollum 1b; assay: microbe, parasite or virus in culture; format: cell-based; details: Bacillus anthracis, VOLLUM1B, read-out: MIC B. anthracis Vollum-1b
Burkholderia mallei CHN7 = assay: microbe, parasite or virus in culture; format: cell-based; details: Burkholderia mallei, CHN7, read-out: MIC B. mallei CHN7
[11] = target: S. aureus RNA polymerase core enzyme, S. aureus σ^A (Staphylococcus aureus, UniProt P47768+Q2G0N5); assay: Fluorescence-detected RNA polymerase assay, S. aureus RNA polymerase; format: biochemical; details: read-out: IC50 S. aureus RNAP
Sequence of S. aureus RNA polymerase core enzyme, S. aureus σ^A (Q2G0N5 whole entry): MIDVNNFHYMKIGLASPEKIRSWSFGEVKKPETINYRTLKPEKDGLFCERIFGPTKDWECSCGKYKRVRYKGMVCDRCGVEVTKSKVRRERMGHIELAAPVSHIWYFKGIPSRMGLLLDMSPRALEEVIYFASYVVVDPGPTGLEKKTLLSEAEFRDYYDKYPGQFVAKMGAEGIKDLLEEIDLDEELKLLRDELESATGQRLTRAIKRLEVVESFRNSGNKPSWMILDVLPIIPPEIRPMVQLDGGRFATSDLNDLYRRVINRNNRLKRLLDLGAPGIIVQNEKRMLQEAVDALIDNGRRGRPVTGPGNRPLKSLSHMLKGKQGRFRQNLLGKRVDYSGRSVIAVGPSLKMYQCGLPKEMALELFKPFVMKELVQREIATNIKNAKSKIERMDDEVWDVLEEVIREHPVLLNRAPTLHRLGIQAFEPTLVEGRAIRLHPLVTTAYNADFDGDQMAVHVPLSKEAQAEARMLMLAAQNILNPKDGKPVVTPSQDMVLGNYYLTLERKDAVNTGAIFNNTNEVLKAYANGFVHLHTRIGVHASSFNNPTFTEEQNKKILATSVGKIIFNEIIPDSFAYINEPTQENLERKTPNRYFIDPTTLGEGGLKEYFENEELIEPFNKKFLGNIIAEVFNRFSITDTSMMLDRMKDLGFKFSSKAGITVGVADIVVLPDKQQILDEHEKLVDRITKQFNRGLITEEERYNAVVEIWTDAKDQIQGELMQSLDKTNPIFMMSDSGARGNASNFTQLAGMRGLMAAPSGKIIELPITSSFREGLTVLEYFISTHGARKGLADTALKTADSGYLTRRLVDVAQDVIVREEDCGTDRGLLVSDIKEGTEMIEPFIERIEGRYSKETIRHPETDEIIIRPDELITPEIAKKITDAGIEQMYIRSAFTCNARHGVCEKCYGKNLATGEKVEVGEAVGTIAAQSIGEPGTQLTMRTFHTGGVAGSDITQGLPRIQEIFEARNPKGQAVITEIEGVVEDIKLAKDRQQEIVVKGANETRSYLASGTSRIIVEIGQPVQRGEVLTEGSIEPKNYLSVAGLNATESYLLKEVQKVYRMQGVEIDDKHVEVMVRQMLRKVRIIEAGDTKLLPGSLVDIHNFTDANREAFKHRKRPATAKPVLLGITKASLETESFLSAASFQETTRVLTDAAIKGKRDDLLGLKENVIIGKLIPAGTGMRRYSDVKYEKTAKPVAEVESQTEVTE
Sequence of S. aureus RNA polymerase core enzyme, S. aureus σ^A (Q2FW32 whole entry, further chain): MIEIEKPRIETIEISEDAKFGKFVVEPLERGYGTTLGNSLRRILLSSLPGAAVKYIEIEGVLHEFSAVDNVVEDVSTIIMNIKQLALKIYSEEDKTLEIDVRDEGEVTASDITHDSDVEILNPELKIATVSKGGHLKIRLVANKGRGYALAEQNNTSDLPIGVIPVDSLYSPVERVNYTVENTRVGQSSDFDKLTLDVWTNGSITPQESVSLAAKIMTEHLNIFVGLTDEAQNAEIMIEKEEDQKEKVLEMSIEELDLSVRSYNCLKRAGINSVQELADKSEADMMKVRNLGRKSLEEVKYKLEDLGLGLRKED
Sequence of S. aureus RNA polymerase core enzyme, S. aureus σ^A (P0A0J0 whole entry, further chain): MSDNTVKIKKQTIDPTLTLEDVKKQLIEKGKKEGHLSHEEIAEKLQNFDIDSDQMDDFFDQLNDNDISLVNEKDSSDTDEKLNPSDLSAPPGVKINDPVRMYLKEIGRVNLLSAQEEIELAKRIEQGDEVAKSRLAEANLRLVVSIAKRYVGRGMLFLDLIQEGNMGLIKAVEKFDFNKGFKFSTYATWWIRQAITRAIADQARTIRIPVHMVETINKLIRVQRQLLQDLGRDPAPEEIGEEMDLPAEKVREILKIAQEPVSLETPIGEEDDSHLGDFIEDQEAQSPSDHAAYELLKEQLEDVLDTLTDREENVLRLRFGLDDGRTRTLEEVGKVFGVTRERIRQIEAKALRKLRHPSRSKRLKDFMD
Sequence of S. aureus RNA polymerase core enzyme, S. aureus σ^A (P47768 whole entry): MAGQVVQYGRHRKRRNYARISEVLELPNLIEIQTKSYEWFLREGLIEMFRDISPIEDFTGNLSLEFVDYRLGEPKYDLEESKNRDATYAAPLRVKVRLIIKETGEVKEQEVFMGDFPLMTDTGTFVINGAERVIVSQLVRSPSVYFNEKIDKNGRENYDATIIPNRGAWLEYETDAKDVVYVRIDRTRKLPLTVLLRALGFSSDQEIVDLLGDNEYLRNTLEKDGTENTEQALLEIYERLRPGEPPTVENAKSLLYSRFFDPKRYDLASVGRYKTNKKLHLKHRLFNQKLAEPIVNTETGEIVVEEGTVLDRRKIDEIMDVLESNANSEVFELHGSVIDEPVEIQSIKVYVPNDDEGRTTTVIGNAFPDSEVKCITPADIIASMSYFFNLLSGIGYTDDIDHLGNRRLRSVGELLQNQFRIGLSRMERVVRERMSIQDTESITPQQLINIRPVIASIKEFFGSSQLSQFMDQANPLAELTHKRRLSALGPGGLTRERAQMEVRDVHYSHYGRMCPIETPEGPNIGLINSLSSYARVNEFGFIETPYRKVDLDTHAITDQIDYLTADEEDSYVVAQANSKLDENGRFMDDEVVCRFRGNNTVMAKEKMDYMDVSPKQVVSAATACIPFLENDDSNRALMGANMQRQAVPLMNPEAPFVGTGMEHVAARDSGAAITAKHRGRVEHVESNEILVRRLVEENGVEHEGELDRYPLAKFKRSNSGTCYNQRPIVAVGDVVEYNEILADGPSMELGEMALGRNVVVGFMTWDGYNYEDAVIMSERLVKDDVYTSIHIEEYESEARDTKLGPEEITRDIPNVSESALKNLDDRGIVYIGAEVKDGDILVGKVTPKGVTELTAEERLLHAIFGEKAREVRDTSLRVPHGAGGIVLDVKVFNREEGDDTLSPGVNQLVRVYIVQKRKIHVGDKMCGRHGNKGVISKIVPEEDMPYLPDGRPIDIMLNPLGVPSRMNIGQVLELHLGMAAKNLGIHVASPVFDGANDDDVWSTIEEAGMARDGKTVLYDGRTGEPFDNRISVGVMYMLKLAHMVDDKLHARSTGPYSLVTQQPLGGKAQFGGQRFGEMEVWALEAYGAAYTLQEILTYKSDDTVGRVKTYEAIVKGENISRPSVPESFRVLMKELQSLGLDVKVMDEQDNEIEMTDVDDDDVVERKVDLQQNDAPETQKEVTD

[12] = test system: Burkholderia pseudomallei Human/Blood/OH/US/1994; assay: microbe, parasite or virus in culture; format: cell-based; details: Burkholderia pseudomallei, read-out: MIC B. pseudomallei Human/Blood/OH
[13] = test system: Francisella tularensis SCHU4; assay: microbe, parasite or virus in culture; format: cell-based; details: Francisella tularensis, SCHU4, read-out: MIC F. tularensis SCHU4
Brucella melitensis 16M = assay: microbe, parasite or virus in culture; format: cell-based; details: Brucella melitensis, 16M, read-out: MIC B. melitensis 16M

Row | SMILES | MIC [1] | MIC [2] | MIC [3] | MIC [4] | IC50 [5] | IC50 [6] | MIC [7] | MIC [8] | MIC [9] | MIC (Yersinia pestis C092) | MIC [10] | MIC (Burkholderia mallei CHN7) | IC50 [11] | MIC [12] | MIC [13] | MIC (Brucella melitensis 16M)
1 | COC(=O)N/C=C/CCC(C)c1cc(O)c(C(=O)C(C)=Cc2ccc(OC(C)C)s2)c(=O)o1 (mixture of isomers) [APY107, methyl ((1E)-5-(4-hydroxy-3-(3-(5-isopropoxythiophen-2-yl)-2-methylacryloyl)-2-oxo-2H-pyran-6-yl)hex-1-en-1-yl)carbamate] | 2 µg/mL | 2 µg/mL | 10 µg/mL | > 40 µg/mL | 400 nM | 20 nM | 2 µg/mL | 0.1 µg/mL | 2 µg/mL | – | – | – | – | – | – | –
2 | CCCCc1ccc2oc(C=C(C)C(=O)c3c(O)cc(C(C)CC/C=C/NC(=O)OC)oc3=O)cc2c1 (mixture of isomers) [APY25, methyl (E)-5-(3-((E/Z)-3-(5-butylbenzofuran-2-yl)-2-methylacryloyl)-4-hydroxy-2-oxo-2H-pyran-6-yl)hex-1-enylcarbamate] | – | 3 µg/mL | 6 µg/mL | > 40 µg/mL | 600 nM | 10 nM | – | 0.3 µg/mL | – | 30 µg/mL | 0.2 µg/mL | 2 µg/mL | 70 nM | 6 µg/mL | 3 µg/mL | 0.8 µg/mL
3 | CCCCc1ccc2sc(C=C(C)C(=O)c3c(O)cc(C(C)CC/C=C/NC(=O)OC)oc3=O)cc2c1 (mixture of isomers) [APY26, methyl (E)-5-(3-((E/Z)-3-(5-butylbenzo[b]thiophen-2-yl)-2-methylacryloyl)-4-hydroxy-2-oxo-2H-pyran-6-yl)hex-1-enylcarbamate] | – | > 40 µg/mL | 6 µg/mL | > 40 µg/mL | 1000 nM | 20 nM | – | 0.3 µg/mL | – | > 50 µg/mL | 2 µg/mL | 6 µg/mL | 200 nM | > 50 µg/mL | 2 µg/mL | 2 µg/mL
4 | CCOCc1ccc(C=C(C)C(=O)c2c(O)cc(C(C)CC/C=C/NC(=O)OC)oc2=O)s1 (mixture of isomers) [APY108, methyl ((1E)-5-(3-(3-(5-(ethoxymethyl)thiophen-2-yl)-2-methylacryloyl)-4-hydroxy-2-oxo-2H-pyran-6-yl)hex-1-en-1-yl)carbamate] | 20 µg/mL | 10 µg/mL | 30 µg/mL | > 40 µg/mL | 700 nM | 300 nM | 20 µg/mL | 0.4 µg/mL | 20 µg/mL | – | – | – | – | – | – | –
5 | CCCCc1ccc(C=C(C)C(=O)c2c(O)cc(C(C)CC/C=C/NC(=O)OC)oc2=O)cc1 (mixture of isomers) [APY41, methyl (E)-5-(3-((E/Z)-3-(4-butylphenyl)-2-methylacryloyl)-4-hydroxy-2-oxo-2H-pyran-6-yl)hex-1-enylcarbamate] | 0.9 µg/mL | 0.8 µg/mL | 3 µg/mL | > 40 µg/mL | – | 8 nM | 0.6 µg/mL | < 0.2 µg/mL | 0.6 µg/mL | 30 µg/mL | 2 µg/mL | 6 µg/mL | – | 10 µg/mL | 6 µg/mL | 0.8 µg/mL
6 | CCCCCCc1ccc2oc(C=C(C)C(=O)c3c(O)cc(C(C)CC/C=C/NC(=O)OC)oc3=O)cc2c1 (mixture of isomers) [APY20, methyl (E)-5-(3-((E/Z)-3-(5-hexylbenzofuran-2-yl)-2-methylacryloyl)-4-hydroxy-2-oxo-2H-pyran-6-yl)hex-1-enylcarbamate] | – | > 40 µg/mL | 6 µg/mL | > 40 µg/mL | 300 nM | 4 nM | – | 0.3 µg/mL | – | > 50 µg/mL | 2 µg/mL | 2 µg/mL | 20 nM | > 50 µg/mL | 0.8 µg/mL | 0.8 µg/mL
7 | CCCOCc1ccc(C=C(C)C(=O)c2c(O)cc(C(C)CC/C=C/NC(=O)OC)oc2=O)s1 (mixture of isomers) [APY109, methyl ((1E)-5-(4-hydroxy-3-(2-methyl-3-(5-(propoxymethyl)thiophen-2-yl)acryloyl)-2-oxo-2H-pyran-6-yl)hex-1-en-1-yl)carbamate] | 7 µg/mL | 3 µg/mL | 30 µg/mL | > 40 µg/mL | 800 nM | 80 nM | 7 µg/mL | 0.2 µg/mL | 7 µg/mL | – | – | – | – | – | – | –
8 | COC(=O)N/C=C/CCC(C)c1cc(O)c(C(=O)C(C)=Cc2ccc(CCC(C)C)cc2)c(=O)o1 (mixture of isomers) [APY73, methyl (E)-5-(4-hydroxy-5-((E/Z)-3-(4-isopentylphenyl)-2-methylacryloyl)-6-oxo-6H-pyran-2-yl)hex-1-enylcarbamate] | 2 µg/mL | 0.6 µg/mL | – | > 40 µg/mL | – | 40 nM | 1 µg/mL | 0.3 µg/mL | 1 µg/mL | – | 2 µg/mL | 50 µg/mL | – | 50 µg/mL | 10 µg/mL | 3 µg/mL
9 | COC(=O)N/C=C/CCC(C)c1cc(O)c(C(=O)C(C)=Cc2ccc(OC(C)C)cc2)c(=O)o1 (mixture of isomers) [APY66, methyl (E)-5-(4-hydroxy-5-((E/Z)-3-(4-isopropoxyphenyl)-2-methylacryloyl)-6-oxo-6H-pyran-2-yl)hex-1-enylcarbamate] | 3 µg/mL | 2 µg/mL | 6 µg/mL | > 40 µg/mL | – | 1000 nM | 2 µg/mL | 0.8 µg/mL | 2 µg/mL | – | 10 µg/mL | > 50 µg/mL | – | > 50 µg/mL | > 50 µg/mL | 10 µg/mL
10 | C=CCCc1ccc(C=C(C)C(=O)c2c(O)cc(C(C)CC/C=C/NC(=O)OC)oc2=O)s1 (mixture of isomers) [APY28, methyl (E)-5-(3-((E/Z)-3-(5-(but-3-enyl)thiophen-2-yl)-2-methylacryloyl)-4-hydroxy-2-oxo-2H-pyran-6-yl)hex-1-enylcarbamate] | – | 2 µg/mL | 6 µg/mL | 30 µg/mL | 200 nM | 40 nM | – | 0.3 µg/mL | – | 30 µg/mL | 6 µg/mL | 10 µg/mL | 60 nM | 30 µg/mL | 30 µg/mL | 0.4 µg/mL
11 | COC(=O)N/C=C/CCC(C)c1cc(O)c(C(=O)C(C)=Cc2ccc(CCC3CC3)s2)c(=O)o1 (mixture of isomers) [APY95, methyl ((1E)-5-(3-(3-(5-(2-cyclopropylethyl)thiophen-2-yl)-2-methylacryloyl)-4-hydroxy-2-oxo-2H-pyran-6-yl)hex-1-en-1-yl)carbamate] | 0.5 µg/mL | 0.8 µg/mL | 10 µg/mL | 10 µg/mL | 50 nM | 5 nM | 0.3 µg/mL | 0.1 µg/mL | 0.4 µg/mL | – | – | – | – | – | – | –
12 | CCCCCCc1cccc(C=C(C)C(=O)c2c(O)cc(C(C)CC/C=C/NC(=O)OC)oc2=O)c1 (mixture of isomers) [APY34, methyl (E)-5-(3-((E/Z)-3-(3-hexylphenyl)-2-methylacryloyl)-4-hydroxy-2-oxo-2H-pyran-6-yl)hex-1-enylcarbamate] | – | > 40 µg/mL | 30 µg/mL | 10 µg/mL | 3000 nM | 10 nM | – | 0.3 µg/mL | – | > 50 µg/mL | 3 µg/mL | 3 µg/mL | 50 nM | 30 µg/mL | 6 µg/mL | 3 µg/mL
13 | C=CCCCCc1ccc(C=C(C)C(=O)c2c(O)cc(C(C)CC/C=C/NC(=O)OC)oc2=O)s1 (mixture of isomers) [APY29, methyl (E)-5-(3-((E/Z)-3-(5-(hex-5-enyl)thiophen-2-yl)-2-methylacryloyl)-4-hydroxy-2-oxo-2H-pyran-6-yl)hex-1-enylcarbamate] | – | 4 µg/mL | 30 µg/mL | 30 µg/mL | 500 nM | 40 nM | – | 0.3 µg/mL | – | 10 µg/mL | 3 µg/mL | 3 µg/mL | 90 nM | 10 µg/mL | 10 µg/mL | 0.8 µg/mL

— patent US9592221B2, “Antibacterial agents: aryl myxopyronin derivatives” (priority 2012, dated 2017)
